From article PMC8079033, “Design, synthesis, anticancer evaluation, and molecular modelling studies of novel tolmetin derivatives as potential VEGFR-2 inhibitors and apoptosis inducers” (Journal of Enzyme Inhibition and Medicinal Chemistry, 2021)
Blank lines part the entries; values can stand above or below the molecule they belong to.

How the values were obtained:
A498 = assay: NCI 60-cell line one-dose antiproliferative screen (SRB); type: cell-based; conditions: Homo sapiens, read-out: growth inhibition % (GI%)
Description: (§1) Anticancer activity screening of the newly synthesised compounds was measured in vitro utilising 60 different human tumour cell lines provided by US National Cancer Institute according to previously reported standard procedure[41–43] as follows: Cells are inoculated into 96-well microtiter plates in 100 ml. After cell inoculation, the microtiter plates are incubated at 37 °C, 5% CO2, 95% air, and 100% relative humidity for 24 h prior to addition of experimental compounds. After 24 h, two plates of each cell line are fixed in situ with TCA, to represent a measurement of the cell population for each cell line at the time of compound addition (Tz). Experimental compounds are solubilised in dimethyl sulfoxide at 400-fold the desired final maximum test concentration and stored frozen prior to use. At the time of compound addition, an aliquot of frozen concentrate is thawed and diluted to twice the desired final maximum test concentration with a complete medium containing […] gentamicin. Aliquots of […] of the compounds dilutions are added to the appropriate microtiter wells already containing 100 ml of medium, resulting in the required final compound concentration. Following compound addition, the plates are incubated for an additional 48 h at 37 °C, 5% CO2, 95% air, and 100% relative humidity. For adherent cells, the assay is terminated by the addition of cold trichloroacetic acid (TCA). Cells are fixed in situ by the gentle addition of 50 ml of cold 50% (w/v) TCA (final concentration, 10% TCA) and incubated for […] at 4 °C. The supernatant is discarded, and the plates are washed five times with tap water and air-dried. Sulforhodamine B (SRB) solution (100 ml) at 0.4% (w/v) in 1% acetic acid is added to each well, and plates are incubated for 10 min at room temperature. After staining, the unbound dye is removed by washing five times with 1% acetic acid and the plates are air-dried. The bound stain is subsequently solubilised with a 10 mM trizma base, and the absorbance is read on an automated plate reader at a wavelength of 515 nm. For suspension cells, the methodology is the same except that the assay is terminated by fixing settled cells at the bottom of the wells by gently adding 50 ml of 80% TCA (final concentration, 16% TCA). Using the absorbance measurements [time zero, (Tz), control growth, (C), and test growth in the presence of compound (Ti)], the percentage growth is calculated for each compound. The One-dose data are reported as a mean graph of the percent growth of treated cells. The reported number is growth relative to the no-compound control, and relative to the time zero number of cells. This allows the detection of both growth inhibition and lethality.
(§2) Fifteen newly synthesised compounds were tested for their in vitro antiproliferative activity by the National Cancer Institute (NCI), Maryland, USA[50], under the Developmental Therapeutic Program (DTP)[41]^,[43]^,[51]^,[52]. The tested compounds were evaluated at a concentration of 10 µM on a panel of 60 tumour cell lines representing leukaemia and non-small cell lung, colon, CNS, melanoma, ovarian, renal, prostate, and breast cancers. The antiproliferative activity was presented by the NCI as percent growth of the treated cells and is presented in Table 1 as growth inhibition percentage (GI%) achieved by the tested compounds.

A549/ATCC = assay: as above; type: cell-based; conditions: Homo sapiens, read-out: growth inhibition % (GI%)
Description: as §1, §2

ACHN = assay: as above; type: cell-based; conditions: Homo sapiens, read-out: growth inhibition % (GI%)
Description: as §1, §2

BT-5 = assay: as above; type: cell-based; conditions: Homo sapiens, read-out: growth inhibition % (GI%)
Description: as §1, §2

CAKI-1 = assay: as above; type: cell-based; conditions: Homo sapiens, read-out: growth inhibition % (GI%)
Description: as §1, §2

EKVX = assay: as above; type: cell-based; conditions: Homo sapiens, read-out: growth inhibition % (GI%)
Description: as §1, §2

HCT-15 = assay: as above; type: cell-based; conditions: Homo sapiens, read-out: growth inhibition % (GI%)
Description: as §1, §2

HOP-62 = assay: as above; type: cell-based; conditions: Homo sapiens, read-out: growth inhibition % (GI%)
Description: as §1, §2

HS 578 T = assay: as above; type: cell-based; conditions: Homo sapiens, read-out: growth inhibition % (GI%)
Description: as §1, §2

IGROV1 = assay: as above; type: cell-based; conditions: Homo sapiens, IGROV-1, read-out: growth inhibition % (GI%)
Description: as §1, §2

LOX IMVI = assay: as above; type: cell-based; conditions: Homo sapiens, read-out: growth inhibition % (GI%)
Description: as §1, §2

M14 = assay: as above; type: cell-based; conditions: Homo sapiens, read-out: growth inhibition % (GI%)
Description: as §1, §2

MCF7 = assay: as above; type: cell-based; conditions: Homo sapiens, read-out: growth inhibition % (GI%)
Description: as §1, §2

MDA-MB-231/ATCC = assay: as above; type: cell-based; conditions: Homo sapiens, read-out: growth inhibition % (GI%)
Description: as §1, §2

MDA-MB-468 = assay: as above; type: cell-based; conditions: Homo sapiens, read-out: growth inhibition % (GI%)
Description: as §1, §2

MOLT-4 = assay: as above; type: cell-based; conditions: Homo sapiens, read-out: growth inhibition % (GI%)
Description: as §1, §2

NCI-H226 = assay: as above; type: cell-based; conditions: Homo sapiens, read-out: growth inhibition % (GI%)
Description: as §1, §2

NCI-H23 = assay: as above; type: cell-based; conditions: Homo sapiens, read-out: growth inhibition % (GI%)
Description: as §1, §2

NCI-H522 = assay: as above; type: cell-based; conditions: Homo sapiens, read-out: growth inhibition % (GI%)
Description: as §1, §2

OVCAR-8 = assay: as above; type: cell-based; conditions: Homo sapiens, read-out: growth inhibition % (GI%)
Description: as §1, §2

PC-3 = assay: as above; type: cell-based; conditions: Homo sapiens, read-out: growth inhibition % (GI%)
Description: as §1, §2

RPMI-8226 = assay: as above; type: cell-based; conditions: Homo sapiens, read-out: growth inhibition % (GI%)
Description: as §1, §2

RXF 393 = assay: as above; type: cell-based; conditions: Homo sapiens, read-out: growth inhibition % (GI%)
Description: as §1, §2

SF-268 = assay: as above; type: cell-based; conditions: Homo sapiens, read-out: growth inhibition % (GI%)
Description: as §1, §2

SF-539 = assay: as above; type: cell-based; conditions: Homo sapiens, read-out: growth inhibition % (GI%)
Description: as §1, §2

SK-MEL-5 = assay: as above; type: cell-based; conditions: Homo sapiens, read-out: growth inhibition % (GI%)
Description: as §1, §2

SN 12 C = assay: as above; type: cell-based; conditions: Homo sapiens, SN12C, read-out: growth inhibition % (GI%)
Description: as §1, §2

SNB-19 = assay: as above; type: cell-based; conditions: Homo sapiens, read-out: growth inhibition % (GI%)
Description: as §1, §2

SNB-75 = assay: as above; type: cell-based; conditions: Homo sapiens, read-out: growth inhibition % (GI%)
Description: as §1, §2

SW-620 = assay: as above; type: cell-based; conditions: Homo sapiens, read-out: growth inhibition % (GI%)
Description: as §1, §2

T-47D = assay: as above; type: cell-based; conditions: Homo sapiens, T47D, read-out: growth inhibition % (GI%)
Description: as §1, §2

U251 = assay: as above; type: cell-based; conditions: Homo sapiens, U-251, read-out: growth inhibition % (GI%)
Description: as §1, §2

UACC-62 = assay: as above; type: cell-based; conditions: Homo sapiens, read-out: growth inhibition % (GI%)
Description: as §1, §2

UO-31 = assay: as above; type: cell-based; conditions: Homo sapiens, read-out: growth inhibition % (GI%)
Description: as §1, §2

HCT-116 = assay: NCI 60-cell line one-dose antiproliferative screen (SRB); type: cell-based; conditions: Homo sapiens, read-out: growth inhibition % (GI%)
Description: as §1, §2

HOP-92 = assay: as above; type: cell-based; conditions: Homo sapiens, read-out: growth inhibition % (GI%)
Description: as §1, §2

K-562 = assay: as above; type: cell-based; conditions: Homo sapiens, K562, read-out: growth inhibition % (GI%)
Description: as §1, §2

KM12 = assay: as above; type: cell-based; conditions: Homo sapiens, read-out: growth inhibition % (GI%)
Description: as §1, §2

MALME-3M = assay: as above; type: cell-based; conditions: Homo sapiens, read-out: growth inhibition % (GI%)
Description: as §1, §2

MDA-MB-435 = assay: as above; type: cell-based; conditions: Homo sapiens, read-out: growth inhibition % (GI%)
Description: as §1, §2

NCI-H322M = assay: as above; type: cell-based; conditions: Homo sapiens, read-out: growth inhibition % (GI%)
Description: as §1, §2

NCI/ADR-RES = assay: as above; type: cell-based; conditions: Homo sapiens, read-out: growth inhibition % (GI%)
Description: as §1, §2

OVCAR-4 = assay: as above; type: cell-based; conditions: Homo sapiens, read-out: growth inhibition % (GI%)
Description: as §1, §2

OVCAR-5 = assay: as above; type: cell-based; conditions: Homo sapiens, read-out: growth inhibition % (GI%)
Description: as §1, §2

SR = assay: as above; type: cell-based; conditions: Homo sapiens, read-out: growth inhibition % (GI%)
Description: as §1, §2

UACC-257 = assay: as above; type: cell-based; conditions: Homo sapiens, read-out: growth inhibition % (GI%)
Description: as §1, §2

melting point: 240 to 242 °C
SMILES: Cc1ccc(C(=O)c2ccc(CC(=O)NNC(=O)Nc3c(C)cccc3Cl)n2C)cc1 [Compound 8b, N-(2-Chloro-6-methylphenyl)-2–(2-(1-methyl-5–(4-methylbenzoyl)-1H-pyrrol-2-yl)acetyl)hydrazinecarboxamide]
inhibition at 10 µM (A498): < 10%
inhibition at 10 µM (A549/ATCC): < 10%
inhibition at 10 µM (ACHN): < 10%
inhibition at 10 µM (BT-5): 12.7%
inhibition at 10 µM (CAKI-1): 11.3%
inhibition at 10 µM (EKVX): < 10%
inhibition at 10 µM (HCT-15): < 10%
inhibition at 10 µM (HOP-62): < 10%
inhibition at 10 µM (HS 578 T): < 10%
inhibition at 10 µM (IGROV1): 11.2%
inhibition at 10 µM (LOX IMVI): < 10%
inhibition at 10 µM (M14): < 10%
inhibition at 10 µM (MCF7): < 10%
inhibition at 10 µM (MDA-MB-231/ATCC): < 10%
inhibition at 10 µM (MDA-MB-468): < 10%
inhibition at 10 µM (MOLT-4): < 10%
inhibition at 10 µM (NCI-H226): < 10%
inhibition at 10 µM (NCI-H23): < 10%
inhibition at 10 µM (NCI-H522): < 10%
inhibition at 10 µM (OVCAR-8): < 10%
inhibition at 10 µM (PC-3): < 10%
inhibition at 10 µM (RPMI-8226): < 10%
inhibition at 10 µM (RXF 393): < 10%
inhibition at 10 µM (SF-268): < 10%
inhibition at 10 µM (SF-539): < 10%
inhibition at 10 µM (SK-MEL-5): < 10%
inhibition at 10 µM (SN 12 C): < 10%
inhibition at 10 µM (SNB-19): 16.1%
inhibition at 10 µM (SNB-75): 27.9%
inhibition at 10 µM (SW-620): < 10%
inhibition at 10 µM (T-47D): < 10%
inhibition at 10 µM (U251): < 10%
inhibition at 10 µM (UACC-62): < 10%
inhibition at 10 µM (UO-31): 26.1%

melting point: 195 to 197 °C
SMILES: Cc1ccc(C(=O)c2ccc(CC(=O)NN=C3C(=O)Nc4ccc(Br)cc43)n2C)cc1 [Compound 6b, N′-(5-Bromo-2-oxoindolin-3-ylidene)-2–(1-methyl-5–(4-methylbenzoyl)-1H-pyrrol-2-yl)acetohydrazide]
inhibition at 10 µM (A498): 10.2%
inhibition at 10 µM (A549/ATCC): < 10%
inhibition at 10 µM (ACHN): < 10%
inhibition at 10 µM (CAKI-1): 15.4%
inhibition at 10 µM (EKVX): < 10%
inhibition at 10 µM (HCT-116): < 10%
inhibition at 10 µM (HOP-92): < 10%
inhibition at 10 µM (IGROV1): < 10%
inhibition at 10 µM (K-562): 10.6%
inhibition at 10 µM (KM12): < 10%
inhibition at 10 µM (LOX IMVI): 10%
inhibition at 10 µM (M14): < 10%
inhibition at 10 µM (MALME-3M): < 10%
inhibition at 10 µM (MCF7): < 10%
inhibition at 10 µM (MDA-MB-231/ATCC): < 10%
inhibition at 10 µM (MDA-MB-435): < 10%
inhibition at 10 µM (MDA-MB-468): < 10%
inhibition at 10 µM (NCI-H226): < 10%
inhibition at 10 µM (NCI-H23): 13.7%
inhibition at 10 µM (NCI-H322M): < 10%
inhibition at 10 µM (NCI-H522): 13.2%
inhibition at 10 µM (NCI/ADR-RES): < 10%
inhibition at 10 µM (OVCAR-4): 10.1%
inhibition at 10 µM (OVCAR-5): < 10%
inhibition at 10 µM (OVCAR-8): < 10%
inhibition at 10 µM (PC-3): < 10%
inhibition at 10 µM (RPMI-8226): < 10%
inhibition at 10 µM (SF-268): < 10%
inhibition at 10 µM (SF-539): < 10%
inhibition at 10 µM (SK-MEL-5): < 10%
inhibition at 10 µM (SN 12 C): < 10%
inhibition at 10 µM (SNB-19): < 10%
inhibition at 10 µM (SNB-75): 36.3%
inhibition at 10 µM (SR): < 10%
inhibition at 10 µM (U251): 34.4%
inhibition at 10 µM (UACC-257): < 10%
inhibition at 10 µM (UACC-62): < 10%
inhibition at 10 µM (UO-31): 25%
